Reference: PMC11788587, “Validating Low‐Dose Iohexol as a Marker for Glomerular Filtration Rate by In Vitro and In Vivo Studies” (Clinical and Translational Science, 2025)
Read-outs that look alike come from different tables or passages of the source.

Key:
[1] = Clinical trial in healthy volunteers, population pharmacokinetic analysis; format: in vivo, human;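 further: population pharmacokinetic parameters fitted to plasma and urine data, interindividual variability modelled exponentially, inter-occasion variability tied additively, sensitivity analysis compares alternative models omitting data from one subject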
Protocol: After establishing a reasonable structural model, the impact of dose‐related effects was assessed as a categorical covariate on PK parameters through forward and backward selection processes. Model improvement was evaluated using the change in the objective function value (ΔOFV), with significance levels of 0.05 (ΔOFV ≤ −3.84) and 0.01 (ΔOFV ≤ −6.63). The stability and performance of the final model were evaluated graphically and statistically, using goodness‐of‐fit plots, nonparametric bootstrap analysis [32], and the visual predictive check (VPC) technique [33], as described earlier [28].
Interindividual variability was estimated for CLR, V1, V2, and V3 using an exponential model. Inter‐occasion variability for CLR, V1, and Q2 was linked to inter‐individual variability through an additive model. The residual variability in plasma and urine data was best described by proportional error models.
To evaluate its impact on the final parameter estimates, we used two approaches: (i) conducting a sensitivity analysis by comparing parameter estimates across three models—the final model, a model excluding early post-dose plasma samples from the subject, and a model excluding all data from this period for the subject.

[2] = design: method as in PMID 27679715; conditions: cited from earlier work
[3] = Model 1: excluding samples within 45 minutes after the test dose for the subject with delayed absorption
[4] = Model 2: excluding all data from the subject with delayed absorption when receiving the test dose
[5] = final model, entire dataset, n=12
[6] = final model, nonparametric bootstrap
[7] = one subject, test dose period with suspected paravenous administration, model with absorption phase

Effect of dose level (categorical covariate) on PK parameters ([1]; 259 mg vs 3235 mg): did not differ significantly
Inter-individual variability CLR estimate ([1]; Model 1): 14.4 CV%
Inter-individual variability V1 estimate ([1]; Model 1): 16.8 CV%
Inter-individual variability V2 estimate ([1]; Model 1): 15.1 CV%
Inter-individual variability V3 estimate ([1]; Model 1): 15.0 CV%
Inter-occasion variability CLR estimate ([1]; Model 1): 3.69 CV%
Inter-occasion variability Q2 estimate ([1]; Model 1): 23.7 CV%
Inter-occasion variability V1 estimate ([1]; Model 1): 4.82 CV%
Q1 estimate [1, 3]: 0.219 L/h
Q2 estimate [1, 3]: 5.53 L/h
V1 estimate [1, 3]: 8.91 L
V2 estimate [1, 3]: 1.54 L
V3 estimate [1, 3]: 4.30 L
Inter-individual variability CLR estimate ([1]; Model 2): 14.2 CV%
Inter-individual variability V1 estimate ([1]; Model 2): 17.2 CV%
Inter-individual variability V2 estimate ([1]; Model 2): 13.8 CV%
Inter-individual variability V3 estimate ([1]; Model 2): 13.5 CV%
Inter-occasion variability CLR estimate ([1]; Model 2): 2.33 CV%
Inter-occasion variability Q2 estimate ([1]; Model 2): 17.1 CV%
Inter-occasion variability V1 estimate ([1]; Model 2): 3.87 CV%
Q1 estimate [1, 4]: 0.227 L/h
Q2 estimate [1, 4]: 5.38 L/h
V1 estimate [1, 4]: 8.90 L
V2 estimate [1, 4]: 1.57 L
V3 estimate [1, 4]: 4.30 L
Interindividual variability CLR, point estimate ([1]; final model, entire dataset): 14.0 CV%
Interindividual variability V1, point estimate ([1]; final model, entire dataset): 16.6 CV%
Interindividual variability V2, point estimate ([1]; final model, entire dataset): 14.0 CV%
Interindividual variability V3, point estimate ([1]; final model, entire dataset): 15.5 CV%
Interoccasion variability CLR, point estimate ([1]; final model, entire dataset): 2.51 CV%
Interoccasion variability Q2, point estimate ([1]; final model, entire dataset): 29.2 CV%
Interoccasion variability V1, point estimate ([1]; final model, entire dataset): 6.23 CV%
Q1 point estimate [1, 5]: 0.221 L/h
Q2 point estimate [1, 5]: 5.84 L/h
V1 point estimate [1, 5]: 9.06 L
V2 point estimate [1, 5]: 1.56 L
V3 point estimate [1, 5]: 4.34 L
Interindividual variability CLR, bootstrap median (95% CI) [1, 6]: 13.5 (5.05–20.1) CV%
Interindividual variability V1, bootstrap median (95% CI) [1, 6]: 15.5 (6.88–23.1) CV%
Interindividual variability V2, bootstrap median (95% CI) [1, 6]: 13.4 (7.81–20.7) CV%
Interindividual variability V3, bootstrap median (95% CI) [1, 6]: 13.7 (5.57–19.2) CV%
Interoccasion variability CLR, bootstrap median (95% CI) [1, 6]: 2.44 (0.900–3.87) CV%
Interoccasion variability Q2, bootstrap median (95% CI) [1, 6]: 28.7 (6.99–65.8) CV%
Interoccasion variability V1, bootstrap median (95% CI) [1, 6]: 6.06 (1.55–10.2) CV%
Q1 bootstrap median (95% CI) [1, 6]: 0.219 (0.164–0.313) L/h
Q2 bootstrap median (95% CI) [1, 6]: 5.76 (4.11–8.23) L/h
V1 bootstrap median (95% CI) [1, 6]: 9.06 (8.18–10.1) L
V2 bootstrap median (95% CI) [1, 6]: 1.57 (1.36–1.87) L
V3 bootstrap median (95% CI) [1, 6]: 4.34 (3.81–4.99) L
CL renal ([1]; human, plasma and urine, intravenous, Model 1: excluding samples within 45 minutes after the test dose for the subject with delayed absorption, read-out: CLR estimate (converted)): 90.8 mL/min
CL renal ([1]; human, plasma and urine, intravenous, Model 2: excluding all data from the subject with delayed absorption when receiving the test dose, read-out: CLR estimate (converted)): 91.5 mL/min
CL renal ([1]; human, plasma and urine, intravenous, final model, entire dataset, n=12, read-out: CLR point estimate (converted)): 91.7 mL/min
CL renal ([1]; human, plasma and urine, intravenous, final model, nonparametric bootstrap, read-out: CLR bootstrap median (95% CI) (converted)): 91.7 mL/min
CL renal ([1]; human, plasma and urine, intravenous, final model, read-out: Individual empirical Bayesian estimates of CLR, median (range) (converted)): 87.5 mL/min
Vd ([1]; human, plasma and urine, intravenous, final model, read-out: Individual empirical Bayesian estimates of volume of distribution (sum of V1, V2, and V3), median (range)): 15.1 L
First-order absorption rate constant [1, 7]: 0.876 h⁻¹
Relative bioavailability [1, 7]: 93.6%
SMILES: CC(=O)N(CC(O)CO)c1c(I)c(C(=O)NCC(O)CO)c(I)c(C(=O)NCC(O)CO)c1I (stereo not shown) [iohexol]
Plasma protein binding [2]: 1.5%
